# Measurements: patent publication US20210205292A1, “INHIBITORS OF CREB-CBP INTERACTION FOR TREATMENT OF LEUKEMIA” (The Board of Trustees of the Leland Stanford Junior …, priority 2016, published 2021)
# Entries after “also recorded” stand apart in the source; their conditions may differ.
# Columns and labels:
# [1] = system: CREB-bound genes in KG-1 cells; assay: RNA-Seq of KG-1 cells; type: cell-based
# Experimental: For Chip-Seq experiments, KG-1 cells were treated with 5 μM Compound A or DMSO for 6 hours. Cells were cross-linked with 1% formaldehyde at room temperature for 10 min and then incubated with […] for 5 min. After cross-linking, chromatin was digested by Micrococcal nuclease and then sonicated using SimpleChIP® Plus Enzymatic Chromatin IP Kit (Cell Signaling, Danvers, Mass.) following the manufacturer's protocol. Chromatin immunoprecipitations were carried out with anti-CREB antibody (Millipore, Billerica, Mass.) or a control IgG (Santa Cruz Biotechnology). The captured immunocomplexes containing bound transcriptional DNA fragments were eluted, with recovered DNA fragments used for PCR amplification. For RNA-Seq experiments, KG-1 cells were treated with Compound A (5 μM) or 0.1% DMSO for 12 hours. RNA was prepared using the Aurum Total RNA Mini Kit (Bio-Rad). Sample libraries were run using the Illumina sequencing platform. Two hundred million reads were collected on two biological replicates of the experiment. Libraries were prepared using the Illumina Truseq RNA samples prep kit per manufacturer's instructions. Fastq files were aligned using TopHat. Aligned BAM files were used for CuffDiff calculation of differentially expressed genes. CummeRbund R package was used to infer QC of the RNA-seq (GEO Submission GSE74928) [NCBI tracking system #17594369]. ChIP-seq analysis was performed. BETA analysis was used by inferring differentially expressed genes between DMSO and Compound A treated cells based on a fdr≤0.01 and gene distance of 100 kb (Galaxy/cistrome). DNA sequences enriched on ChIP-Seq were defined.
# To determine the functional specificity and downstream effects of Compound A in AML, the CREB transcriptome was first defined in KG-1 cells using CREB chromatin immunoprecipitation followed by high-throughput sequencing (CREB ChIP-Se). […] In this way, the ‘on-target’ effects of Compound A could be assessed.
# CREB phosphorylation = CREB phosphorylation in HL-60 cells; type: cell-based, human
# Source text: FIG. 12, panels A-D, illustrates the results of CyTOF Phenotyping and Compound A Combination Studies. […] Viability for Compound A treatment alone was 87.4±7.3%, versus 55.3±3.4% and 49.5±2.3% when combined with ERK and RSK inhibitors, respectively (* indicates p<0.05 compared to cells treated with Compound A alone). Panel D) Compound A inhibits CREB phosphorylation in the presence of serum. HL-60 cells were serum-starved then stimulated with serum.
# Cells were lysed in RIPA buffer (Sigma), and the protein concentrations were determined by BCA assay (Thermo Scientific Pierce). Lysates were solubilized in 6×SDS PAGE buffer and […] of protein was loaded into 6-15% SDS PAGE gels, pheresed, and then transferred onto […] PVDF membrane (Millipore). Primary antibodies were applied at a dilution of 1:1000. Anti-Bcl-2, -Bax, -Mcl-1, -Bcl-XL, -Cyclin A and -Cyclin D1 antibodies were purchased from Cell Signaling Technologies. Anti-total acetylated histone and -ac-H3K27 were purchased from Santa Cruz Biotechnologies. Anti-actin and -CREB antibodies were purchased from upstate. Secondary antibodies were used at a 1:2500 dilution and purchased from Thermo Scientific/Pierce. WesternBright ECL was used for image acquisition on Image Lab software (Bio-Rad).
# [2] = system: normal bone marrow progenitor cells; assay: Methylcellulose hematopoietic cell colony assay; type: cell-based, human; details: up to 10 mM, colonies counted on day 14
# Experimental: Human bone marrow cells from non-leukemic patients were resuspended in a volume of 0.3 mL of IMDM with 20% FBS at 5×10^5 cells/mL and mixed with varying concentrations of the Compound A (10 pM to 10 mM in 0.1% DMSO) or 0.1% DMSO control. This was added to 3 mL of methylcellulose-containing growth factors IL-3, IL-6, G-CSF, erythropoietin, SCF (Methocult GF-H4434; Stem Cell Technology) and plated. The colonies were observed daily and counted on day 14.
# [3] = system: Cyclin A1, Cyclin D1, Fra-1, RFC-3; assay: Expression of CREB-regulated cell cycle genes; type: cell-based
# Experimental: Cyclin A1 and D1 expression was decreased following 12 hours of treatment, while Fra-1 and RFC-3 expression decreased following 48 hours of treatment.
# Mol Cell Biol. 2004; 24(11):4696-709) (FIG. 6, panel C). […] Levels of RFC-3 also decrease following Compound A treatment (FIG. 6, panel C).
# [4] = system: CREB-driven promoter (CRE); assay: CREB-driven (CRE) luciferase reporter in KG-1 cells; type: cell-based; details: 6 hours
# Experimental: KG-1 cell lines were created to express luciferase in a CREB-dependent or non-CREB-dependent fashion using lentiviral gene delivery. Cells were sorted for mCherry expression by flow cytometry and selected with puromycin. Luciferase activity was measured on a […] using the Promega Luciferase Activity Kit (Promega) per manufacturer's instructions following six hours of treatment with Compound A or 0.1% DMSO. The split Renilla luciferase complementation assay has been described previously (Li BX, and Xiao X. Discovery of a small-molecule inhibitor of the KIX-KID interaction. Chembiochem: a European journal of chemical biology. 2009; 10(17):2721-4). In this assay, the KID and KIX domains were fused to the N- and C-terminal regions of Renilla luciferase, respectively. Once KIX binds phosphorylated KID, the Renilla luciferase regions were brought together, resulting in luciferase activity.
# To test the ability of Compound A to disrupt CREB-CBP binding in cells, a split Renilla luciferase complementation assay was performed. […] This early timepoint was selected to permit accurate reporter gene activity measurement prior to the onset of anticipated global cell dysfunction or death induced by Compound A. Treatment with 3 μM Compound A reduced luciferase activity by 33.2±7.7% at this timepoint. […] Thus, Compound A inhibits CREB function through disruption of CREB:CBP interaction.
smiles,measurement,setting,value
"N#Cc1ccc(NC(=O)c2cc3ccccc3cc2O)cc1 [Compound A, N-(4-cyanophenyl)-3-hydroxy-2-naphthamide]",number of CREB-bound genes with greater than 50% reduced expression,"[1]; 5 μM, 12 hours",602
same,number of CREB-bound genes with reduced expression,"[1]; 5 μM, 12 hours, of 4680 CREB-bound sites",2787
same,"target gene expression of other CBP-binding transcription factors (Rel, RelA, RelB, Foxo3, Foxo1, Myb)","[1]; KG-1 cells, RNA-Seq",no significant change
same,CREB phosphorylation in the presence of serum,"CREB phosphorylation; HL-60 cells serum-starved then stimulated with serum, 48 hours",CREB phosphorylation decreases
same,CREB phosphorylation,"CREB phosphorylation; HL-60 cells, 24 hours",increase in CREB phosphorylation
same,colony formation,[2],no significant decrease in colony formation
same,Cyclin A1 and D1 expression,[3]; 12 hours of treatment,decreased
same,Fra-1 and RFC-3 expression,[3]; 48 hours of treatment,decreased
same,reduction of CREB-driven luciferase activity,[4]; 3 μM,33.2±7.7%
same,CREB-driven luciferase activity,"[4]; KG-1 cells, 3, 10 and 30 μM",significantly decreased; also recorded: reduced by Compound A in a dose-dependent fashion
